Experiment [1] addresses T1, Glucocorticoid Receptor (GR) (Homo sapiens, UniProt P04150).
T1 construct: Cells were transfected the next day with MMTV-Luc (5 μg) and pGL4-hRLuc (0.1 μg); endogenous in cells; host or cells: HeLa
T1 sequence (P04150 1-777): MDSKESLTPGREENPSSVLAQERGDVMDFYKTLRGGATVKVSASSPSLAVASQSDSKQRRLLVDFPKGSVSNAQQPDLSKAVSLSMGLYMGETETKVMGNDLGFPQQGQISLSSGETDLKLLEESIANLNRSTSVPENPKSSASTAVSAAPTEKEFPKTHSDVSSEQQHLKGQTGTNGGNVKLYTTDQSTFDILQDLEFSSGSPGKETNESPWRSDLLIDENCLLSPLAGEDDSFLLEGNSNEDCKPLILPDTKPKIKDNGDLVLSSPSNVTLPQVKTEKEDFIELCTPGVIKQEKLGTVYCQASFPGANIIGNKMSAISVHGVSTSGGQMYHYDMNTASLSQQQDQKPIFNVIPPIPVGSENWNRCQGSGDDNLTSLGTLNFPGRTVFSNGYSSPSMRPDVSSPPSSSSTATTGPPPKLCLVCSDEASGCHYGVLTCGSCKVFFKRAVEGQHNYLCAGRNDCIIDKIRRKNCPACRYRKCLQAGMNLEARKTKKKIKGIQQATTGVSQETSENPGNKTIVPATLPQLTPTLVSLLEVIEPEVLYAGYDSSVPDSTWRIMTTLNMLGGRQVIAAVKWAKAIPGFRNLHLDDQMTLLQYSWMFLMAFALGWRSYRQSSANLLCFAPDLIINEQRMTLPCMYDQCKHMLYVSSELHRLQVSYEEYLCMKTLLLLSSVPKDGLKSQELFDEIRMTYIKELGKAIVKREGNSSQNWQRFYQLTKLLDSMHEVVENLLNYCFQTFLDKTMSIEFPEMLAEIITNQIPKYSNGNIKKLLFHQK
Briefly: Transactivation assay (MMTV-Luc reporter in HeLa cells). The experiment is classed as cell-based. Here is the method: HeLa cells were seeded at 80×10^4 cells/dish in 100 mm dishes. Cells were transfected the next day with MMTV-Luc (5 μg) and pGL4-hRLuc (0.1 μg), in 250 μL of Opti-MEM I using FuGENE HD (15 μL). After 24 hours, cells were trypsinized and seeded into 96-well plates at a density of 8-10×10^4 cells/mL.
Following overnight incubation to allow attachment, cells were treated with the required concentration of compounds, then further incubated for 16 hours. Media was aspirated and cells lysed in 40 μL of 1×PLB.
(§1) Firefly and Renilla luciferase activity was measured using the Dual Luciferase Reporter system following the manufacturer's protocol.
(§2) IC50 and EC50 values were calculated by using GraphPad Prism 5.0. Briefly, luminescence values for luciferase were normalised using the Renilla luminescence values. The normalised values were input into GraphPad Prism 5.0. Non-linear regression analysis was carried out using the “log(concentration) vs. response” equation of the software, with a Hill slope coefficient fixed at 1.
(§3) IC50 and EC50 values are mean values in nM of all IC50/EC50 values for the compound. Max % values are mean values of the Max% activity.

For a further experiment, the system named is NFkB. Kind of experiment: Transrepression assay (NFκB-LUC reporter in HeLa cells, TNF stimulated). It is filed as cell-based. The following applies: for Emax / IC50: Homo sapiens, HeLa; for Emax: 16 h, read-out: TR Max %. Here is the method: HeLa cells were seeded at 80×10^4 cells/dish in 100 mm dishes. Cells were transfected the next day with NFκB-LUC reporter (5 μg) and pGL4-hRLuc (0.1 μg), in 0.25 mL of Opti-MEM I using FuGENE HD (15 μL). After 24 hours, cells were trypsinized and seeded in to 24-well plates at a density of 8-10×10^4 cells/mL. Following overnight incubation, cells were starved for a further 24 hours in DMEM.
On the day of the experiment, compounds were added to cells one hour prior to the addition of […] (0.5 ng/mL). After a further 16 hours, cells were washed twice with ice-cold PBS, then lysed with 100 μL of 1×PLB.
as §1, §2, §3

Setting [2] is: concentration for half-maximal transactivation; HeLa, MMTV-Luc, 16 hours; mean; read-out: TA EC50.
The mark [3] stands for this setting: concentration for half-maximal repression of NFkB, TNF 0.5 ng/mL, 16 hours, mean, read-out: TR IC50.

Structures are written as SMILES. Like-named read-outs stand apart in the source and are kept apart here.

`C[C@@H]1C[C@H]2[C@@H]3CCC4=CC(=O)C=C[C@]4(C)[C@@]3(F)[C@@H](O)C[C@]2(C)[C@@]1(O)C(=O)NCCCOc1ccc(F)cc1` [Compound 6]: the Emax in experiment [1] (HeLa, 16 h; read-out: TA Max %) was determined as 16%; in the experiment with NFkB, 84.6%. For the same compound, the EC50 in experiment [1] (setting [2]) is 0.89 µM. For the same compound, the IC50 in the experiment with NFkB (setting [3]) is 0.0115 µM.
With `CCOc1ccc(C(=O)Nc2nc([C@@]3(O)[C@H](C)C[C@H]4[C@@H]5CCC6=CC(=O)C=C[C@]6(C)[C@@]5(F)[C@@H](O)C[C@@]43C)cs2)cc1` [Compound 46], the Emax in experiment [1] (HeLa, 16 h; read-out: TA Max %) turned out to be 9.95%; in the experiment on NFkB it was 55.1%. For the same compound, the EC50 in experiment [1] (setting [2]) was 6.65 µM. Moreover, the IC50 in the experiment with NFkB (setting [3]) amounted to 0.027 µM.
Turning to `C[C@@H]1C[C@H]2[C@@H]3CCC4=CC(=O)C=C[C@]4(C)[C@@]3(F)[C@@H](O)C[C@]2(C)[C@@]1(O)C(=O)NCCOc1ccncc1` [Compound 12], the Emax in experiment [1] (HeLa, 16 h; read-out: TA Max %) amounted to 23.8%; in the experiment on NFkB, 91.1%. Besides, in experiment [1] (setting [2]), the EC50 was 0.719 µM. Also, in the experiment on NFkB (setting [3]), the IC50 is 0.0407 µM.
For the compound `COc1ccc(OCCCNC(=O)[C@@]2(O)[C@H](C)C[C@H]3[C@@H]4CCC5=CC(=O)C=C[C@]5(C)[C@@]4(F)[C@@H](O)C[C@@]32C)cc1` [Compound 4], the Emax in experiment [1] (HeLa, 16 h, read-out: TA Max %) came to 39.4%; in the experiment on NFkB, 106%. Moreover, the concentration giving a half-maximal response (EC50) in experiment [1] (setting [2]) came to 0.0692 µM. Also, in the experiment with NFkB (setting [3]), the IC50 came out at 0.00395 µM.
Consider `C[C@@H]1C[C@H]2[C@@H]3CCC4=CC(=O)C=C[C@]4(C)[C@@]3(F)[C@@H](O)C[C@]2(C)[C@@]1(O)c1csc(NC(=O)Cc2ccc(F)cc2)n1` [Compound 24], for which the Emax is 2.63% in experiment [1] (HeLa, 16 h; read-out: TA Max %) and 79% with NFkB. Besides, in experiment [1] (setting [2]), the EC50 turned out to be 7.69 µM. For the same compound, the 50% inhibitory concentration (IC50) with NFkB (setting [3]) came out at 0.00596 µM.
For `COc1ccc(CNc2nc([C@@]3(O)[C@H](C)C[C@H]4[C@@H]5CCC6=CC(=O)C=C[C@]6(C)[C@@]5(F)[C@@H](O)C[C@@]43C)cs2)cc1` [Compound 42], in that order: 0.56%, 51.1%, 0.392 µM and 0.199 µM.
On to `C[C@@H]1C[C@H]2[C@@H]3CCC4=CC(=O)C=C[C@]4(C)[C@@]3(F)[C@@H](O)C[C@]2(C)[C@@]1(O)c1csc(N(C)C(=O)c2ccc(F)cc2)n1` [Compound 43], for which the Emax in experiment [1] (HeLa, 16 h; read-out: TA Max %) amounted to 1.63%; in the experiment on NFkB it was 61%. For the same compound, in experiment [1] (setting [2]), the half-maximal effective concentration (EC50) turned out to be 86.2 µM. Further, the IC50 in the experiment with NFkB (setting [3]) is 0.155 µM.
For `COc1cccc(C(=O)Nc2nc([C@@]3(O)[C@H](C)C[C@H]4[C@@H]5CCC6=CC(=O)C=C[C@]6(C)[C@@]5(F)[C@@H](O)C[C@@]43C)cs2)c1` [Compound 29], in that order: 0.67%, 44.2%, 19.4 µM and 0.00796 µM.
For `C[C@@H]1C[C@H]2[C@@H]3CCC4=CC(=O)C=C[C@]4(C)[C@@]3(F)[C@@H](O)C[C@]2(C)[C@@]1(O)C(=O)NCCCc1cccc(F)c1` [Compound 14], in that order: 36.6%, 88.6%, 0.536 µM and 0.0239 µM.
With `COc1ccc(OCCCNC(=O)[C@@]2(O)[C@H](C)C[C@H]3[C@@H]4CCC5=CC(=O)C=C[C@]5(C)[C@@]4(F)[C@@H](O)C[C@@]32C)cc1OC` [Compound 16], the Emax is 21.2% in experiment [1] (HeLa, 16 h; read-out: TA Max %) and 87.2% with NFkB. Moreover, the EC50 in experiment [1] (setting [2]) turned out to be 0.881 µM. Besides, in the experiment with NFkB (setting [3]), the half-inhibitory concentration (IC50) amounted to 0.0267 µM.
Taken in the same sequence, the figures for `C[C@@H]1C[C@H]2[C@@H]3CCC4=CC(=O)C=C[C@]4(C)[C@@]3(F)[C@@H](O)C[C@]2(C)[C@@]1(O)c1csc(NC(=O)c2ccc(F)nc2)n1` [Compound 47] were 7.41%, 48%, 0.669 µM and 0.0229 µM.
As to `C[C@@H]1C[C@H]2[C@@H]3CCC4=CC(=O)C=C[C@]4(C)[C@@]3(F)[C@@H](O)C[C@]2(C)[C@@]1(O)c1csc(NC(=O)c2ncco2)n1` [Compound 33], the Emax in experiment [1] (HeLa, 16 h; read-out: TA Max %) came out at 0%; in the experiment on NFkB, 32.7%. Moreover, the IC50 with NFkB (setting [3]) was found to be 0.0669 µM.
On to `C[C@@H]1C[C@H]2[C@@H]3CCC4=CC(=O)C=C[C@]4(C)[C@@]3(F)[C@@H](O)C[C@]2(C)[C@@]1(O)c1csc(NC(=O)c2ccccn2)n1` [Compound 40], for which the Emax in experiment [1] (HeLa, 16 h; read-out: TA Max %) was determined as 1.34%; in the experiment with NFkB, 19%. Besides, the EC50 in experiment [1] (setting [2]) was found to be 16.9 µM. The IC50 in the experiment on NFkB (setting [3]) came out at 0.00834 µM.
Taken in the same sequence, the figures for `C[C@@H]1C[C@H]2[C@@H]3CCC4=CC(=O)C=C[C@]4(C)[C@@]3(F)[C@@H](O)C[C@]2(C)[C@@]1(O)C(=O)NCCCc1ccccc1` [Compound 11] were 36.5%, 88.8%, 0.114 µM and 0.0302 µM.
Regarding `C[C@@H]1C[C@H]2[C@@H]3CCC4=CC(=O)C=C[C@]4(C)[C@@]3(F)[C@@H](O)C[C@]2(C)[C@@]1(O)C(=O)NCCOc1nc2ccccc2o1` [Compound 10], the Emax in experiment [1] (HeLa, 16 h; read-out: TA Max %) amounted to 4.79%; in the experiment on NFkB it was 55.1%. Also, the EC50 in experiment [1] (setting [2]) came to 3.39 µM. Further, the IC50 in the experiment on NFkB (setting [3]) stood at 0.0354 µM.
Turning to `C[C@@H]1C[C@H]2[C@@H]3CCC4=CC(=O)C=C[C@]4(C)[C@@]3(F)[C@@H](O)C[C@]2(C)[C@@]1(O)c1csc(NC(=O)c2cscn2)n1` [Compound 36], the Emax stood at 1.19% in experiment [1] (HeLa, 16 h; read-out: TA Max %) and 33.6% in the experiment with NFkB. In experiment [1] (setting [2]), the EC50 came out at 5.52 µM. Further, the IC50 in the experiment with NFkB (setting [3]) worked out at 0.0106 µM.
Taken in the same sequence, the figures for `C[C@@H]1C[C@H]2[C@@H]3CCC4=CC(=O)C=C[C@]4(C)[C@@]3(F)[C@@H](O)C[C@]2(C)[C@@]1(O)c1csc(NC(=O)c2ccc[nH]2)n1` [Compound 37] were 3.22%, 31.4%, 2.77 µM and 0.0179 µM.
Taken in the same sequence, the figures for `C[C@@H]1C[C@H]2[C@@H]3CCC4=CC(=O)C=C[C@]4(C)[C@@]3(F)[C@@H](O)C[C@]2(C)[C@@]1(O)c1csc(NC(=O)c2ccc(F)c(F)c2)n1` [Compound 44] were 14.6%, 41.8%, 0.914 µM and 0.0286 µM.
Taken in the same sequence, the figures for `C[C@@H]1C[C@H]2[C@@H]3CCC4=CC(=O)C=C[C@]4(C)[C@@]3(F)[C@@H](O)C[C@]2(C)[C@@]1(O)c1csc(NC(=O)c2ccc(Cl)cc2)n1` [Compound 27] were 5.89%, 49.7%, 1.64 µM and 0.0109 µM.
As to `COc1ccc(OCCNC(=O)[C@@]2(O)[C@H](C)C[C@H]3[C@@H]4CCC5=CC(=O)C=C[C@]5(C)[C@@]4(F)[C@@H](O)C[C@@]32C)cc1` [Compound 7], the Emax is 44% in experiment [1] (HeLa, 16 h; read-out: TA Max %) and 97.3% in the experiment with NFkB. In addition, the TA % in experiment [1] (comparison table; against maximal activation seen with dexamethasone) came out at 44%. Moreover, the concentration giving a half-maximal response (EC50) in experiment [1] (setting [2]) worked out at 0.294 µM. For the same compound, the IC50 with NFkB (comparison table, half-maximal repression of NFkB, multiple experiments, read-out: IC50) worked out at 0.00122 µM; in the experiment on NFkB (setting [3]) it was 0.0194 µM. In the experiment with NFkB (comparison table, maximal NFkB repression compared to Dexamethasone), this compound showed a TR % of 98%.
As for `C[C@@H]1C[C@H]2[C@@H]3CCC4=CC(=O)C=C[C@]4(C)[C@@]3(F)[C@@H](O)C[C@]2(C)[C@@]1(O)c1csc(NC(=O)CCc2ccc(F)cc2)n1` [Compound 38], the Emax is 2.48% in experiment [1] (HeLa, 16 h; read-out: TA Max %) and 65.5% in the experiment on NFkB. For the same compound, the EC50 in experiment [1] (setting [2]) was found to be 24.4 µM. For the same compound, in the experiment on NFkB (setting [3]), the IC50 was 0.0312 µM.

A word on the EC50: it is the concentration that produces a half-maximal response. The IC50 is the midpoint of a concentration-inhibition curve.

The record behind these values is US20170044208A1, “SELECTIVE GLUCOCORTICOID RECEPTOR LIGANDS” (The University of Manchester, priority 2013, published 2017).
